# The supplement of paper PMC10307832
# Key:
# Test in all cases: relative viability (nuclei count vs DMSO), 5 days (fraction); higher = more cells survive
# AZD1208 + Trametinib = compound: N[C@@H]1CCCN(c2c(/C=C3\SC(=O)NC3=O)cccc2-c2ccccc2)C1 [AZD1208] + CC(=O)Nc1cccc(-n2c(=O)n(C3CC3)c(=O)c3c(Nc4ccc(I)cc4F)n(C)c(=O)c(C)c32)c1 [Trametinib] (partner 0.02 µM)
# Outline: (§1)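 Dosing by pin tool came one day after lung cancer cell lines were seeded in 1536-well plates, using either one drug or a fixed anchor-drug dose plus five library-drug doses (not always all listed) in √10 steps. After 5 days, nuclei were counted on 4× images. Relative viability is treated-well nuclei count divided by vehicle-well nuclei count, and values are medians of duplicate plates.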
# XMD14-99 + Pictilisib = compound: CN1CCN(CC1)C2=CC(=C(C=C2)NC3=NC(=C(S3)C(=O)C4=C(C=CC=C4Cl)Cl)N)OC [XMD14-99] + CS(=O)(=O)N1CCN(Cc2cc3nc(-c4cccc5[nH]ncc45)nc(N4CCOCC4)c3s2)CC1 [Pictilisib] (partner 1 µM)
# Outline: as §1
# XMD14-99 + Decitabine = compound: CN1CCN(CC1)C2=CC(=C(C=C2)NC3=NC(=C(S3)C(=O)C4=C(C=CC=C4Cl)Cl)N)OC [XMD14-99] + Nc1ncn([C@H]2C[C@H](O)[C@@H](CO)O2)c(=O)n1 [Decitabine] (partner 2 µM)
# Outline: as §1
# AZD1208 + Crizotinib = compound: N[C@@H]1CCCN(c2c(/C=C3\SC(=O)NC3=O)cccc2-c2ccccc2)C1 [AZD1208] + C[C@@H](Oc1cc(-c2cnn(C3CCNCC3)c2)cnc1N)c1c(Cl)ccc(F)c1Cl [Crizotinib] (partner 1 µM)
# Outline: as §1
cell line,measurement,setting,value
UMC-11,relative viability,AZD1208 + Trametinib; first compound 0.08 µM,0.498
same,relative viability,AZD1208 + Trametinib; first compound 0.253 µM,0.623
same,relative viability,AZD1208 + Trametinib; first compound 0.8 µM,0.454
same,relative viability,AZD1208 + Trametinib; first compound 2.53 µM,0.381
same,relative viability,AZD1208 + Trametinib; first compound 8 µM,0.313
same,relative viability,XMD14-99 + Pictilisib; first compound 0.08 µM,0.802
same,relative viability,XMD14-99 + Pictilisib; first compound 0.8 µM,0.856
same,relative viability,XMD14-99 + Pictilisib; first compound 2.53 µM,0.795
same,relative viability,XMD14-99 + Pictilisib; first compound 8 µM,0.663
same,relative viability,XMD14-99 + Decitabine; first compound 0.08 µM,0.573
same,relative viability,XMD14-99 + Decitabine; first compound 0.8 µM,0.667
same,relative viability,XMD14-99 + Decitabine; first compound 2.53 µM,0.626
same,relative viability,XMD14-99 + Decitabine; first compound 8 µM,0.589
same,relative viability,AZD1208 + Crizotinib; first compound 0.08 µM,0.553
same,relative viability,AZD1208 + Crizotinib; first compound 0.253 µM,0.502
same,relative viability,AZD1208 + Crizotinib; first compound 0.8 µM,0.426
same,relative viability,AZD1208 + Crizotinib; first compound 2.53 µM,0.426
same,relative viability,AZD1208 + Crizotinib; first compound 8 µM,0.275
